Literature values as cited in paper PMC4621754, “Parasitic diarrheal disease: drug development and targets” (Frontiers in Microbiology, 2015).
Read-outs that look alike come from different tables or passages of the source.

Experiments:
E. histolytica PPi-PFK = tested on: E. histolytica PPi-PFK; set-up: method as in Reeves et al., 1974, 1976; details: ref Reeves et al., 1974, 1976
tubulin = tested on: tubulin; set-up: method as in Valdez et al., 2002; details: ref Valdez et al., 2002
E. histolytica = details: ref Valdez et al., 2002
[1] = tested on: methionine aminopeptidase type 2(MetAP2); set-up: method as in Molina et al., 2002; details: E. cuniculi; non-competitive, irreversible; ref Molina et al., 2002
[2] = tested on: Encephalitozoon spp. and E. bieneusi; set-up: method as in Bacchi and Weiss, 2004; details: in vitro; ref Bacchi and Weiss, 2004
human cells = details: ref Bendesky et al., 2002
B. hominis [3] = tested on: B. hominis; set-up: method as in Nasirudeen et al., 2004; details: ref Nasirudeen et al., 2004
I. belli = details: ref Trier et al., 1974; Syrkis et al., 1975; Butler and De Boer, 1981; Weiss et al., 1988
B. hominis [4] = tested on: B. hominis; set-up: method as in Van Hellemond et al., 2013; details: in comparison to metronidazole; ref Van Hellemond et al., 2013
E. intestinalis [5] = tested on: E. intestinalis; set-up: method as in Menotti et al., 2005; Pozio and Morales, 2005; details: tissue culture, ref Menotti et al., 2005, Pozio and Morales
giardiasis = tested on: giardiasis; set-up: method as in Galkin et al., 2014; details: mice; ref Galkin et al., 2014
Carbamate kinase = tested on: Carbamate kinase; set-up: method as in Galkin et al., 2014; details: ref Galkin et al., 2014
[6] = set-up: method as in Diaz et al., 2003; details: intestinal infection caused by C. cayetanensis; ref Diaz et al., 2003
cryptosporidiosis = tested on: cryptosporidiosis; set-up: method as in Mead, 2002; Gargala, 2008; details: ref Mead, 2002, Gargala, 2008
microsporidia = tested on: microsporidia; set-up: method as in Didier et al., 2005; details: ref Didier et al., 2005
E. intestinalis [7] = details: ref John et al., 2005
[8] = tested on: Acyl-coenzyme-A synthetases; set-up: method as in Guo et al., 2014; details: cryptosporidial infection in mice; ref Guo et al., 2014

In the case of `O=P(O)(O)C(O)(Cn1ccnc1)P(=O)(O)O` [CGP42446A], the “inhibition of PFK in E. histolytica” value (E. histolytica PPi-PFK) is given as “good inhibitors”.

In the case of `S=c1[nH]c2ccc(Cl)cc2[nH]1` [Compound 36, 5(6)-chloro-1H-benzimidazole-2-(3H)-thione], the tubulin polymerization (tubulin) is listed as “inhibits tubulin polymerization”, the IC50 (E. histolytica) is listed as 5 nM and the IC50 (G. lamblia; in vitro, ref Valdez et al., 2002) is listed as 5 nM.

In the case of `CO[C@@H]1[C@H](OC(=O)/C=C/C=C/C=C/C=C/C(=O)O)CC[C@]2(CO2)[C@H]1[C@@]1(C)O[C@@H]1CC=C(C)C` [Fumagillin], the MetAP2 inhibition [1] is given as “potent inhibitor” and the “activity against Encephalitozoon spp. and E. bieneusi” value [2] is given as “potent”.

For `Cc1ncc([N+](=O)[O-])n1CCO` [Metronidazole], the genotoxicity (human cells) is listed as “genotoxic”, the programmed cell death (B. hominis [3]) is listed as “induces programmed cell death” and the “cure of I. belli induced diarrhea” value (I. belli) is listed as “cure the I. belli induced diarrhea but to lesser extent”.

In the case of `NC[C@@H]1O[C@H](O[C@H]2[C@@H](O)[C@H](O[C@@H]3[C@@H](O)[C@H](N)C[C@H](N)[C@H]3O[C@H]3O[C@H](CO)[C@@H](O)[C@H](O)[C@H]3N)O[C@@H]2CO)[C@H](N)[C@@H](O)[C@@H]1O` [Paramomycin, paromomycin], the “performance against B. hominis infections” value (B. hominis [4]) is listed as “superior performance in comparison to metronidazole”.

For `CC(C)c1nc(CN(C)C(=O)N[C@H](C(=O)N[C@@H](Cc2ccccc2)C[C@H](O)[C@H](Cc2ccccc2)NC(=O)OCc2cncs2)C(C)C)cs1` [Ritonavir], the “growth of E. intestinalis” value (E. intestinalis [5]) is listed as “inhibited the growth”.

For `CCN(CC)C(=S)SSC(=S)N(CC)CC` [disulfiram], the cure of giardiasis (giardiasis) is listed as “cure of giardiasis in mice”, the carbamate kinase inhibition (Carbamate kinase) is listed as “inhibits this enzyme” and the effect on trophozoites (G. lamblia; ref Galkin et al., 2014) is listed as “kills the trophozoites”.

For `CC(C)(C)NC(=O)[C@@H]1CN(Cc2cccnc2)CCN1C[C@@H](O)C[C@@H](Cc1ccccc1)C(=O)N[C@H]1c2ccccc2C[C@H]1O` [indinavir], the “growth of E. intestinalis” value (E. intestinalis [5]) is given as “inhibited the growth”.

In the case of `CC(=O)Oc1ccccc1C(=O)Nc1ncc([N+](=O)[O-])s1` [nitazoxanide], the side effects [6] is given as “no severe side effects”, the efficacy in cryptosporidiosis (cryptosporidiosis; immunocompetent patients) is given as “effective” and the efficacy in cryptosporidiosis (cryptosporidiosis; immunocompromised patients) is given as “ineffective”.

For `CC1COc2c(N3CCN(C)CC3)c(F)cc3c(=O)c(C(=O)O)cn1c23` (stereo not drawn) [ofloxacin], the antimicrosporidial activity (microsporidia) is listed as “more than gatifloxacin (6), lomefloxacin (7), moxifloxacin (8), and nalidixic acid (9)”.

For `O=[O+][O-]` [ozone], the “killing of E. intestinalis” value (E. intestinalis [7]) is given as “kills”.

For `CCC/C=C/C/C=C/C=C/C=N/NN=O` [triacsin C], the “inhibition of acyl-coenzyme-A synthetases” value [8] is listed as “inhibited”.
